Data published in ChEMBL document CHEMBL1201862, “PubChem BioAssay data set” (2004).
Activity calls are given as the source filed them.

Key:
[1] = LGR2 antagonists, dose response, cell-based, HEK293, CRE-luciferase reporter, cherry pick, set 2 (AID 743343); assay type: functional;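 also: transfected cells were stimulated with diluted bursicon conditioned medium after compound addition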
[2] = A549 cell cytotoxicity, dose response, cytotoxicity control, plate reader, cherry-pick, antagonist series (AID 743412); assay type: functional, cell-based
[3] = MC4R antagonists, dose response, counter-screen for LGR2 antagonist project, cell-based, plate reader, cherry pick (AID 743444); assay type: functional;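 also: transfected HEK 293 cells stimulated with alpha-MSH peptide; potency of inhibitors of the alpha-MSH evoked signal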
[4] = Luminescence Cell-Based Dose Response HTS to Identify Inhibitors of 5'UTR Stem-Loop Driven Prion Protein mRNA Translation in H4 Neuroglioblastoma Cells. [Related pubchem assays: 1827 (Project Summary), 1813 (Primary HTS)]; assay type: functional
[5] = inhibitors of SNCA 5'UTR-driven reporter translation, confirmation, H4 neuroglioma cells, luminescence (AID 1988); assay type: functional, cell-based
[6] = biological target: T1, DNA repair protein RAD52 homolog (Homo sapiens, UniProt P43351); assay type: functional, biochemical
T1 sequence (P43351 whole entry): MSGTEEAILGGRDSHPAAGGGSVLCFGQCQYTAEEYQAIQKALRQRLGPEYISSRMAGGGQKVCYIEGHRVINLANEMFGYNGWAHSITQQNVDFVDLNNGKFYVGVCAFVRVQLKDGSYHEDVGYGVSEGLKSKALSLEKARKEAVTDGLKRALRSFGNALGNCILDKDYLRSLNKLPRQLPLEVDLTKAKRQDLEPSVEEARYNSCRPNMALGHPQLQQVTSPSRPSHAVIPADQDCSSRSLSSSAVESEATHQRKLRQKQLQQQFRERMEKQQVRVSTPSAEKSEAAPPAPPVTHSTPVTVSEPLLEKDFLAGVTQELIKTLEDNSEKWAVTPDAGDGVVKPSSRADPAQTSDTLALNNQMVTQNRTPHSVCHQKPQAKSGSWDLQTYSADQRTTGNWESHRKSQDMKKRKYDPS

[7] = biological target: T2, Sentrin-specific protease 6 (Homo sapiens, UniProt Q9GZR1); assay type: functional;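 also: Luminescence-based dose-response confirmatory assay of SENP6 inhibition, following up an ultra-high-throughput screen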
T2 sequence (Q9GZR1 whole entry): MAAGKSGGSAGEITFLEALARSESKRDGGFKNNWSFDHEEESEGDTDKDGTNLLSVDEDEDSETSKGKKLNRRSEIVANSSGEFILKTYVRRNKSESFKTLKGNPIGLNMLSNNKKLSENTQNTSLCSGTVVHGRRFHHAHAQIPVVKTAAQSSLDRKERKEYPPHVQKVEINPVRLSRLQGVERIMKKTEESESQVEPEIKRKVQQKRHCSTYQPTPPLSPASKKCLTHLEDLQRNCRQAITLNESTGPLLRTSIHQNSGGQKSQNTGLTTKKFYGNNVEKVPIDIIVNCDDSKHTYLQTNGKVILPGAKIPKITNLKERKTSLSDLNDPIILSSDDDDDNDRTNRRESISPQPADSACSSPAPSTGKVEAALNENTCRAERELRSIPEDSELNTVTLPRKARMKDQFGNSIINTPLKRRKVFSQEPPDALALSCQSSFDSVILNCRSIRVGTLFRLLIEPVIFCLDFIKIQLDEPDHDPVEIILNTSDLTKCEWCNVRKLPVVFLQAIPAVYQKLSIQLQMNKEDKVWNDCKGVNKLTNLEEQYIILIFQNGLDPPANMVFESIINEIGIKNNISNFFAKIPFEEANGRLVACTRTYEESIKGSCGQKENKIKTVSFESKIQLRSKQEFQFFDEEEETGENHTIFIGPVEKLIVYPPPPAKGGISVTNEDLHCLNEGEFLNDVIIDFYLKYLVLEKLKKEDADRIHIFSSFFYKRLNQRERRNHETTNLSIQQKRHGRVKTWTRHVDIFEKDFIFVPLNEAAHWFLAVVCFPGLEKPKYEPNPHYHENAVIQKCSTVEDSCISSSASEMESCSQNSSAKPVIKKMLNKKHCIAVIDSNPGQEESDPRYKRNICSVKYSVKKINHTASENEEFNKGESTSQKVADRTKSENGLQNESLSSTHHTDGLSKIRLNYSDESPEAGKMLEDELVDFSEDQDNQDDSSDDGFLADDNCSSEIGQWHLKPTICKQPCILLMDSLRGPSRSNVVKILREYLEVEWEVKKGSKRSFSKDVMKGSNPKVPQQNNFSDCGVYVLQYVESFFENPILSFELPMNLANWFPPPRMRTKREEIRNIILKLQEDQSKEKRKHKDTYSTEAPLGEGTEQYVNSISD

[8] = biological target: T3, Caspase-3 (Homo sapiens, UniProt P42574); assay type: functional;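 also: Dose-response selectivity test against caspase-3 for candidate inhibitors of sentrin-specific proteases (SENPs)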
T3 sequence (P42574 whole entry): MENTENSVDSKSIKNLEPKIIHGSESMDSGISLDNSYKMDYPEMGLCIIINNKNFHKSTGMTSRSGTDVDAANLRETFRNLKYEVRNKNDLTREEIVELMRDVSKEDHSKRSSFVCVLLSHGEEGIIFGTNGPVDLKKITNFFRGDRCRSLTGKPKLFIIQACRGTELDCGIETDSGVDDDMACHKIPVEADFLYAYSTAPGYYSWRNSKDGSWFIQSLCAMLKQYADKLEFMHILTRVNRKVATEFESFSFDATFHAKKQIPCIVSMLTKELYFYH

[9] = biological target: T4, Sentrin-specific protease 7 (Homo sapiens, UniProt Q9BQF6); assay type: functional;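 also: Luminescence-based dose-response confirmation of ultra-high-throughput screening hits, measuring inhibition of SENP7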
T4 sequence (Q9BQF6 whole entry): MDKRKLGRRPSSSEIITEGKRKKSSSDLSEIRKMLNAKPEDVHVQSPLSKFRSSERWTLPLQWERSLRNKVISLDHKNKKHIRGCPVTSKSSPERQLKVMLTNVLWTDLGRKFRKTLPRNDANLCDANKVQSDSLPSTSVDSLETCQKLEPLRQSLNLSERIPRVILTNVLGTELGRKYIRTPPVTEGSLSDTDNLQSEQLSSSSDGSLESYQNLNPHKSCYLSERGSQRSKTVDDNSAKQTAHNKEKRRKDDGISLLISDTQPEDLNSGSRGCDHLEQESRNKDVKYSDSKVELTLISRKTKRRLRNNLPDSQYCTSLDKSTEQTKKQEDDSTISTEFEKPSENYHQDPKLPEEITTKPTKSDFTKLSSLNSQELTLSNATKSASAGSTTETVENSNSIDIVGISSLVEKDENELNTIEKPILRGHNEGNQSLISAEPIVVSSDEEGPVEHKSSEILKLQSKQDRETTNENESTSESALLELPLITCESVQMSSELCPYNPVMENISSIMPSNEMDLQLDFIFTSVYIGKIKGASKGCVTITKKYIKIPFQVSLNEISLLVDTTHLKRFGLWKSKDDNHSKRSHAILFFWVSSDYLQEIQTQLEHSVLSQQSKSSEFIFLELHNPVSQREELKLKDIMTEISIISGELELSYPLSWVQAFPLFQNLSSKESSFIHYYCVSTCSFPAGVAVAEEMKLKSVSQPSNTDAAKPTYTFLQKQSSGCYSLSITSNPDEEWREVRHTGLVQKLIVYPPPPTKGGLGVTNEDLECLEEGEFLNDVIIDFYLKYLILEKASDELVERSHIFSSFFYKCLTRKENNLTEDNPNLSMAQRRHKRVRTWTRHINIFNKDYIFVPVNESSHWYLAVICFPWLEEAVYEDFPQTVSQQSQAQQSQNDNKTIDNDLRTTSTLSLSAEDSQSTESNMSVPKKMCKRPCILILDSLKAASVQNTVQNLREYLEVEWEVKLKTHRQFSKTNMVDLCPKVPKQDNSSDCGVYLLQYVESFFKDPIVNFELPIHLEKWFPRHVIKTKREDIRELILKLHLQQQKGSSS

[10] = biological target: T5, Sentrin-specific protease 8 (Homo sapiens, UniProt Q96LD8); assay type: functional;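 also: luminescence read-out of SENP8 inhibition, dose-response confirmation following an ultra-high-throughput screen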
T5 sequence (Q96LD8 whole entry): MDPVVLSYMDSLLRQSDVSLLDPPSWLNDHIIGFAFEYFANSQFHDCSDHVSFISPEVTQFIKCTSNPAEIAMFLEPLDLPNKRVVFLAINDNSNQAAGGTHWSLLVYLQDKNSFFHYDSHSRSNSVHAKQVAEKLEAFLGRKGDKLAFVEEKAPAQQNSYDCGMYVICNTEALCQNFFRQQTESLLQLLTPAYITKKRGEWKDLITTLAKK

[11] = HepG2 cell cytotoxicity, dose response, cytotoxicity control, plate reader, cherry-pick, antagonist series (AID 743416); assay type: functional, cell-based
[12] = inhibitors of intracellular T. cruzi replication, confirmation, NIH3T3 host cells, beta-gal luminescence (AID 2044); assay type: functional, cell-based;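 also: intracellular parasites grown in NIH/3T3 mouse fibroblasts as host cells; luminescent beta-galactosidase reporter signal from transgenic T. cruzi replicating inside host cells; inhibitors lower the luminescence signal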
[13] = cytotoxicity toward NIH3T3 fibroblasts, dose response, counter-screen, cell-based, ATP luminescence, mouse fibroblasts (AID 2010); assay type: functional;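 also: cells exposed to compound for about 90 hours before reading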
[14] = growth suppression of beta-catenin-knockout colon cells, dose response, cell-based, HCT116, human colon tumor (AID 1045); assay type: functional;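 also: HCT116 colon tumor cells with beta catenin knocked out; cells exposed to compound for 60 hours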
[15] = growth suppression of PTEN-null colon cells, dose response, cell-based, HCT116 PTEN knockout (AID 1047); assay type: functional;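 also: HCT116 colon tumor cells with PTEN knocked out; cells exposed to compound for 60 hours before readout; potency for loss of cell viability measured by luminescence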
[16] = biological target: T6, Estrogen receptor beta (Homo sapiens, UniProt Q92731);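 also: recombinant ER-beta bound to coactivator SRC1 peptide in presence of estradiol agonist; inhibitors block coactivator peptide binding and lower the FRET signal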
[17] = biological target: T6, Estrogen receptor beta; assay: ERβ–SRC-3 coactivator interaction inhibitors, confirmation, orthogonal assay, biochemical, ELISA, streptavidin-HRP readout (AID 1060)
[18] = biological target: Paired box protein Pax-8 (Homo sapiens, UniProt Q06710); assay: inhibitors of PAX8-driven TPO luciferase reporter, dose response, RMG-I cells, cherry-pick (AID 687027); assay type: functional, cell-based;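 also: luciferase reporter driven by Pax8 target thyroperoxidase promoter measured by SteadyGlo luminescence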
[19] = intracellular Trypanosoma cruzi inhibitors in host cells – cell-based, plate reader, cherry-pick samples, set 3, dose response (AID 651818); assay type: functional;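 also: compounds incubated with infected cells for about four days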
[20] = NIH:OVCAR-3 ovarian cancer cell cytotoxicity, dose response, PAX8 inhibitor project, plate reader, dry powder samples (AID 743044); assay type: functional, cell-based
[21] = non-specific cell cytotoxicity, dose response, cytotoxicity control for PAX8 inhibitor project, plate reader, dry powder samples (AID 743021); assay type: functional, cell-based
[22] = HeLa 4N DNA content increase, dose response, cell-based, IC50 (AID 1117351); assay type: functional
[23] = HeLa 2N DNA content increase, dose response, cell-based, IC50 (AID 1117349); assay type: functional
[24] = IOSE-T80 ovarian epithelial cell cytotoxicity, dose response, cytotoxicity control for PAX8 inhibitor project, plate reader, dry powder samples (AID 743045); assay type: functional, cell-based
[25] = IGROV1 ovarian cancer cell cytotoxicity, dose response, PAX8 inhibitor project, plate reader, dry powder samples (AID 743043); assay type: functional, cell-based; conditions: IGROV-1
[26] = cytotoxicity in OVCAR8 ovarian cancer cells, dose response, PAX8 project, cell-based, plate reader, dry powder samples (AID 743197); assay type: functional; conditions: OVCAR-8
[27] = P. falciparum Dd2 growth inhibitors, dose response, SYBR Green, dry powder samples, set 9 (AID 1159568); assay type: functional, cell-based

Paired box protein Pax-8, sequence (Q06710 whole entry): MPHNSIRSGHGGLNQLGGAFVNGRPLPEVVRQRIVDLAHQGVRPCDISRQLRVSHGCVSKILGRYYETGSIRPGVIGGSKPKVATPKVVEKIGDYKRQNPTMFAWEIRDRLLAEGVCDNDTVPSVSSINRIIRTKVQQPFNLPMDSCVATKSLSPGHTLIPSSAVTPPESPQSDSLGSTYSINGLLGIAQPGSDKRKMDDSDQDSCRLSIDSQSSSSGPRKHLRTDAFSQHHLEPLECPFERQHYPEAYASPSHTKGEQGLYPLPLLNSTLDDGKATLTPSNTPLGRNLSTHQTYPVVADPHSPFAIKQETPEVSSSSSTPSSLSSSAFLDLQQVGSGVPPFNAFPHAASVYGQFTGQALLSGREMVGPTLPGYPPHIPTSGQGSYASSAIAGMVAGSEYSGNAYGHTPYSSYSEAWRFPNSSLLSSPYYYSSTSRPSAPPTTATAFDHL
T6 sequence (Q92731 whole entry): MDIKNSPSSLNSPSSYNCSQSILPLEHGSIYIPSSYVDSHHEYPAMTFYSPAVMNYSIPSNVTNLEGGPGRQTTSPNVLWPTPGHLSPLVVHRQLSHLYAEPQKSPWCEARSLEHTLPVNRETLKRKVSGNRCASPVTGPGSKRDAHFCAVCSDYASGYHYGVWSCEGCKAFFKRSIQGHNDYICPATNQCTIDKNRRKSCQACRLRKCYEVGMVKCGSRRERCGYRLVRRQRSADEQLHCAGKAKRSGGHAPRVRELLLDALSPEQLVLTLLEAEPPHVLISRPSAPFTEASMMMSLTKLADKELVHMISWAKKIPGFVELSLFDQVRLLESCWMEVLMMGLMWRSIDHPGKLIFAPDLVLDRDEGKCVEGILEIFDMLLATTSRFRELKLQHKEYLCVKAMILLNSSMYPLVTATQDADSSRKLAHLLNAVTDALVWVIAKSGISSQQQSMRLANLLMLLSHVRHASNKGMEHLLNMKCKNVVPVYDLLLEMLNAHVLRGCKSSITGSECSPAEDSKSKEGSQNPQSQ

For `Cc1cnc(NC(=O)COc2ccccc2Cl)s1`, the AC50 [1] was 2.33 µM (active), the AC50 [2] was > 52 µM (inactive) and the AC50 [3] was 2.3 µM (active). The EC50 [4] was 0.491 µM (active) and the EC50 [5] was 1.25 µM (active).
For `CCN(CC)CCCN(C(=O)c1ccc(OC)cc1)c1nc(-c2ccc(OC)cc2)cs1`, the AC50 [6] was 18.1 µM (active).
With `COc1ccc(C(=O)Nc2ccc3ccccc3n2)c(OC)c1OC` the AC50 [1] was 7.06 µM (active), the IC50 [7] was 2.95 µM (active) and the IC50 [8] was 6.1 µM (active). The AC50 [2] was > 52 µM (inactive), the AC50 [3] was 6.75 µM (active) and the IC50 [9] was 2.37 µM (active). For the same molecule, the IC50 [10] was > 100 µM (inactive) and the AC50 [11] was > 52 µM (inactive).
For `CN(C)CCCn1c(SCC(=O)N2c3ccccc3Sc3ccccc32)nc2ccccc2c1=O`, the EC50 [12] was 0.268 µM (active), the EC50 [13] was > 60 µM (not active) and the EC50 [14] was 4.73 µM (active). The EC50 [15] was 5.64 µM (active) and the AC50 [6] was 17.1 µM (active).
For `O=S(=O)(NCC(O)COCc1ccco1)c1cccs1` (configuration not stated), the IC50 [16] was 20.6 µM (active) and the IC50 [17] was 14 µM (not active).
For `CN(C)CCNC(=O)c1cccc2nc3c(ccc4ccccc43)nc12`, the AC50 [6] was 0.501 µM (active).
With `COc1ccc(S(=O)(=O)N(C)C[C@H]2Oc3c(NC(=O)Nc4ccc(C(F)(F)F)cc4)cccc3C(=O)N([C@@H](C)CO)C[C@H]2C)cc1` the AC50 [18] was 7.04 µM (active), the AC50 [19] was 7.67 µM (active) and the AC50 [20] was 66.2 µM (active). For the same molecule, the AC50 [21] was 51 µM (active).
For `CO[C@@H]1[C@@H](OC)[C@H](C)[C@@](O)(CC(=O)O)O[C@H]1[C@H](C)[C@H]1O[C@@]2(CC[C@@](C)([C@H]3CC[C@@](C)([C@@H]4O[C@@H]([C@H]5O[C@](C)(O)[C@H](C)C[C@@H]5C)C[C@@H]4OC4C[C@H](OC)[C@@H](OC)[C@H](C)O4)O3)O2)C[C@H](O)[C@H]1C` (some centres not stated), the IC50 [22] was > 10 µM (inactive) and the IC50 [23] was > 10 µM (inactive).
With `Cc1ccc(S(=O)(=O)N(C)C[C@H]2Oc3cc(C#Cc4ccncc4)ccc3S(=O)(=O)N([C@@H](C)CO)C[C@H]2C)cc1` the AC50 [18] was 3.15 µM (active), the AC50 [24] was 51.6 µM (active) and the AC50 [25] was 45.3 µM (active). The AC50 [26] was 30.8 µM (active) and the AC50 [20] was 4.57 µM (active).
For `O=C(Nc1ccc(F)cc1)N1C[C@@H]2N[C@H](C1)[C@@H]2c1ccc(/C=C/c2ccccc2)cc1`, the AC50 [18] was 10.7 µM (active), the AC50 [26] was 26 µM (active) and the AC50 [21] was 23.6 µM (active).
In the case of `CC(=O)Nc1ccn(C2COC(COC(=O)c3ccccc3)O2)c(=O)n1` (configuration not stated), the IC50 [22] is reported as > 10 µM (inactive) and the IC50 [23] is reported as > 10 µM (inactive).
In the case of `C[C@@H]1CCCCO[C@@H](CN(C)S(=O)(=O)c2ccc(F)cc2)[C@@H](C)CN([C@@H](C)CO)C(=O)c2cc(N(C)C)ccc2O1`, the AC50 [27] is reported as 2.56 µM (active).
With `COc1ccc(-c2ccccc2[C@@H]2[C@@H](C#N)N(C(=O)NC3CCCCC3)[C@H]2CO)cc1` the AC50 [27] was 7.06 µM (active).
For `O=S(=O)(c1cccs1)N1CCCCN2[C@H](CO)[C@H](c3ccc(/C=C/c4ccccc4)cc3)[C@H]2C1`, the AC50 [27] was 3.42 µM (active).
For `C[C@@H]1CN([C@H](C)CO)C(=O)c2cccc(NC(=O)c3ccc(-c4nccs4)cc3)c2O[C@H]1CN(C)C(=O)Nc1ccc(C(F)(F)F)cc1`, the AC50 [27] was 7.49 µM (active).
